Assay results published in patent US12692273B2, “p53 modulators and uses thereof” (The Regents of the University of California, priority 2019, dated 2026).
“And” between values parts separate entries of the source, which are not always exact repeats. Equal values may be shown once. “Also recorded” adds a separate entry of the source.

Assays:
BxPC-3 (Y220C) cells = assay: Western blot of p21 and p53 in BxPC-3 (Y220C) cells; assay type: cell-based, human
Excerpt: (§1) This is exciting preliminary evidence of successful re-animation of p53 (Y220C) with our lead compound KG2.
We have successfully synthesized several PEG linked versions of JQ1-KG1 bivalent molecules. We also treated BxPC-3 cells with free KG1 and JQ1 compounds as additional controls. We have performed western blots on p53, p21 and actin as a control (FIG. 4C).
(§2) Western blots and antibodies. Whole-cell extracts from MCF10A (Gift from Prof. Sourav Bandyopadhyay, UCSF), BxPC-3 (ATCC, CRL-1687), Calu-1 (ATCC, HTB-54) were prepared by lysing cells with lysis buffer containing 50 mM HEPES, 150 mM NaCl, 1 mM DTT, 10% glycerol, and 1% NP-40 (pH 7.0) in the presence of 1×cOmplete EDTA-free protease inhibitor cocktail (Roche). Whole-cell extracts were combined with 2×SDS-loading buffer for western blot analysis.
(§3) Western blots were performed with 10 μg protein and were resolved by SDS-PAGE on 4-12% BT gels (Invitrogen) at 150 V for 1 hr in MES buffer and transferred to nitrocellulose membranes, which were then incubated with primary antibodies at 4° C. overnight, followed by incubation with LI-COR IRDye anti-mouse and anti-rabbit secondary antibodies at room temperature for 1 hr. Bands were imaged on a LI-COR Odyssey scanner.
(§4) Antibodies for western blot detection were as follows: p53 (DO-1, SCBT), actin (8H10D10, CST), Rb phosS807/811 (85165, CST), and p21 (SX118, SCBT).

p53 Y220C [1] = target: T1, p53 Y220C (Homo sapiens, UniProt P04637, C124S/C182S/C229S/C275S/C277S/M133L/N239Y/N268D/Y220C); assay: Thermal stability assay (differential scanning fluorimetry) of p53 Y220C covalent adducts; assay type: binding; conditions: for Tm: p53 Y220C-compound adduct, p53 Y220C alone 33.0, p53 WT 41.5; for Δ Tm (thermal shift, stabilization of Y220C): relative to p53 Y220C alone
T1 construct: Human p53 WT, R273C, and Y220C (residues 94-312,; 6xHIS (TEV-cleavable) (cleaved yes); made in house; host or cells: E. coli BL21(DE3)
Method: We synthesized a series of compounds, covalently labelled recombinant p53 (Y220C) with the compound, and performed differential scanning fluorimetry (DSF) assay to determine Tm relative to Y220C alone. We tested our lead compounds with the largest increase in Tm in homozygous p53 (Y220C) cell lines BxPC-3 and HCC1419 to determined how the covalent molecules alter p53 target gene expression. p53 WT MCF10A and p53 null Calu-1 cells were used as controls. The cell panel was treated with concentrations of compound ranging 100 nM-10 μM for 4 hr, 24 hr, and 48 hr. DMSO was used as a negative control, KG2 as a positive control, and Nutlin-3a as a positive control for p53 WT (FIG. 3D). We determined the differences in p53 target gene activation by performing qPCR on CDKN1A, MDM2, PUMA, BAX, NOXA, and used GAPDH as a negative control. We also performed a western blot on p53, p21, MDM2, and actin as a control to monitor the expected increase in protein levels of p21 and MDM2 protein. […] We immunoprecipitated p53 Y220C from the compound treated cell panel with Pab240 or IgG control, and western blot for p53 to determine the relative rescue of the native fold compared to DMSO treated cells.
(§5) Recombinant protein expression. Human p53 WT, R273C, and Y220C (residues 94-312, (C124S, M133L, C182S, C229S, N239Y, N268D, C275S, C277S) were expressed as 6×HIS fusion proteins in E. coli BL21(DE3). Lysates were first purified by Ni Sepharose High Performance (GE Healthcare) affinity chromatography. Proteins were then eluted from the resin and subject to Heparin (GE Healthcare) affinity chromatography. The elution fraction was then subjected to TEV protease cleavage overnight in 50 mM HEPES, 200 mM NaCl, and 1 mM DTT (pH 7.0). The protein was then passed over Heparin affinity resin again to remove free 6×HIS and TEV protease, concentrated, and stored in a buffer containing 50 mM HEPES, 200 mM NaCl, and 20% glycerol (pH 7.0).
Thermal Stability Assays. The thermal denaturation of p53 was monitored using fluorescence-based differential scanning fluorimetry assay. Purified p53 was incubated with excess covalent ligand overnight at 4° C. and purified by gel-filtration into 50 mM HEPES, 100 mM NaCl, and 15% glycerol (pH 7.0). 5 μM protein was prepared in assay buffer 50 mM HEPES and 100 mM NaCl (pH 7.0) with 2×SYPRO Orange (ThermoFisher). The plate was heated from 15° C. to 65° C. at a rate of 0.5° C./min. The fluorescence intensity was monitored at Ex/Em: 492/610 nm.

p53 Y220C [2] = target: T1, p53 Y220C; assay: LC-MS analysis of p53 Y220C covalent labeling; assay type: binding; conditions: for label and reactivate p53 Y220C: recombinant protein and patient derived cell-lines; for covalent labeling of p53 (Y220C): recombinant protein, Cys-220
Method: as §5
LC-MS analysis of p53 Y220C covalent labeling. Recombinant p53 Y220C (1 μM) in buffer containing 50 mM HEPES and 150 mM NaCl (pH 7.0) was treated with covalent compounds. The extent of covalent labeling was assessed by LC-MS (Waters Xevo G2-XS QTof, ACQUITY UPLC Protein BEH C4 Column, 300 Å, 1.7 μm, 2.1 mm×50 mm). Deconvolution of multiply charged ions was performed using Waters MassLynx software (version 4.1).

Calu-1 (null) cells = assay: Western blot of p21 in Calu-1 (p53 null) cells; assay type: cell-based, human; conditions: Calu-1, p53 null setting
Method: as §1, §2, §3, §4

| SMILES | p21 induction (Western blot) (BxPC-3 (Y220C) cells; BxPC-3 (p53 Y220C) cells) | Tm (p53 Y220C [1]; DSF) | Δ Tm (thermal shift, stabilization of Y220C) (p53 Y220C [1]) | label and reactivate p53 Y220C (p53 Y220C [2]) | covalent labeling of p53 (Y220C) (p53 Y220C [2]) | also measured |
| --- | --- | --- | --- | --- | --- | --- |
| C=CC(=O)n1c2ccccc2c2cc(C(=O)NCCOCCOCCOCCOCCNC(=O)C[C@@H]3N=C(c4ccc(Cl)cc4)c4c(sc(C)c4C)-n4c(C)nnc43)ccc21 [JQ1PEG4KG1] | strongly induce p21 |  |  |  |  | target p53 (Y220C) engagement (higher MW shift of p53 band) (BxPC-3 (Y220C) cells; BxPC-3 cells, Western blot): evidence of target p53 (Y220C) engagement; cell death (lower actin staining) (BxPC-3 (Y220C) cells; BxPC-3 cells, higher concentrations, 24 hours): extensive cell death |
| C=C(CC)C(N)=O [2-Ethylacrylamide] |  |  |  |  |  | stabilization of Y220C (in words) (p53 Y220C [1]; DSF, in the assay tested): did not stabilize |
| C=CC(=O)n1cc(C=O)c2ccccc21 [KG37] |  | 34.5 °C | 1.5 °C |  |  |  |
| C#CCNC(=O)c1cn(C(=O)C=C)c2ccccc12 [KG2] | activation of p21 expression in Y220C cells to the same level as nutlin in WT p53 cells |  |  | label and reactivate | labels p53 (Y220C) | active concentration for p21 activation (BxPC-3 (Y220C) cells; BxPC-3 (p53 Y220C) cells): active at μM concentrations; p21 induction (Western blot) (Calu-1 (null) cells): does not show induction of p21 |
| C=CC(=O)n1c2ccccc2c2cc(C=O)ccc21 [KG1] | little or no effects | 35 °C and 34.5 °C | 1.5 °C | label and reactivate | reacts with p53 (Y220C); also recorded: covalently labels |  |
| Cc1sc2c(c1C)C(c1ccc(Cl)cc1)=N[C@@H](CC(=O)OC(C)(C)C)c1nnc(C)n1-2 [JQ1, (S)-tert-butyl 2-(4-(4-chlorophenyl)-2,3,9-trimethyl-6H-thieno[3,2-f][1,2,4]triazolo[4,3-a][1,4]diazepin-6-yl)acetate, reference compound] | modest activation of p21 |  |  |  |  |  |
